According to US20220079931A1, “ESTROGEN RECEPTOR PROTEIN DEGRADERS” (THE REGENTS OF THE UNIVERSITY OF MICHIGAN, priority 2019, published 2022):

Assays:
ERα [1] = target: T1, ERα (Homo sapiens, UniProt P03372); test: ER degradation by Western blotting in T47D cells; format: cell-based; parameters: Dmax: dose or concentration left out as unconfirmed
T1 sequence (P03372 1-595): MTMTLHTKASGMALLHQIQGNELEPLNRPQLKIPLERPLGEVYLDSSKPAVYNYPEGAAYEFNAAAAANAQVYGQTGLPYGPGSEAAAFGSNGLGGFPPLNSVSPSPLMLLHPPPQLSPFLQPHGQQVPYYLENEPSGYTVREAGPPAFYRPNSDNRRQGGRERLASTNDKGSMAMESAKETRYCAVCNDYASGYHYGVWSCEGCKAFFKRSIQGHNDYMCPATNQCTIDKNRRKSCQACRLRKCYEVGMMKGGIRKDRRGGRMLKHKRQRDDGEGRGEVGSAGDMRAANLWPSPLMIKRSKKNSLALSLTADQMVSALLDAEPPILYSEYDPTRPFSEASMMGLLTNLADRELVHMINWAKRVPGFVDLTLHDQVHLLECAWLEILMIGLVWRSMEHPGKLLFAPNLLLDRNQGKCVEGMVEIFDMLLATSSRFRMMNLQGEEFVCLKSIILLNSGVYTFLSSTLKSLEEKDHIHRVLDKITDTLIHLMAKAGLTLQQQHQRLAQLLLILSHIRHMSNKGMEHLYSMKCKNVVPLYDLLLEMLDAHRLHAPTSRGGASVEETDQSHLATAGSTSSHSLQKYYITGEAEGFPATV
Description: FIG. 8 is an image showing the ERα degradation dose-response Western blotting for compound 32 at 4 h in T47D cells. […] Cell Culture. Human breast cancer cell lines MCF-7 (ATCC® HTB-22TM) and T47D (ATCC® HTB-133TM) were purchased from the American Type Culture Collection (ATCC), Manassas, Va., and maintained and cultured in Dulbecco's Modified Eagle's medium (DMEM) containing 10% fetal bovine serum, 1 unit/ml of penicillin and 1 μg/ml of streptomycin. Cells with 3-8 passages after purchase were used in experiments as indicated. Western Blot Analysis. Western blot analysis was performed essentially as described previously (Hu et al, 2015, PMID: 26358219). Cells treated with indicated compounds were lysed in Radioimmunoprecipitation Assay Protein Lysis and Extraction Buffer (25 mmol/L Tris.HCl, pH 7.6, 150 mmol/L NaCl, 1% Nonidet P-40, 1% sodium deoxycholate, and 0.1% sodium dodecyl sulfate) containing proteinase inhibitor cocktail (Roche Diagnostics, Mannheim, Germany). After determination of protein concentration by BCA assay (Fisher Scientific, Pittsburgh, Pa.), equal amounts of total protein were electrophoresed through 10% SDS-polyacrylamide gels. The separated protein bands were transferred onto PVDF membranes (GE Healthcare Life Sciences, Marlborough, Mass.) and blotted against different antibodies, as indicated. The human estrogen receptor a antibodies (AB16460) were purchased from Abeam, Inc., Cambridge, Mass. The membranes were reblotted with horseradish peroxidase-conjugated anti-glyceraldehyde-3-phosphate dehydrogenase antibody ([…]) from Sigma-Aldrich Corporation, St. Louis, Mo. The blots were scanned and the band intensities were quantified using GelQuant.NET software as described in biochemlabsolutions.com. The relative mean intensity of target proteins was expressed after normalization to the intensity of glyceraldehyde-3-phosphate dehydrogenase bands from individual repeats.

MCF-7 cells = test: WST-8 cell proliferation assay in MCF-7 cells; format: cell-based, human
Description: (§1) Cell Culture. Human breast cancer cell lines MCF-7 (ATCC® HTB-22™) and T47D (ATCC® HTB-133™) were purchased from the American Type Culture Collection (ATCC), Manassas, Va., and maintained and cultured in Dulbecco's Modified Eagle's medium (DMEM) containing 10% fetal bovine serum, 1 unit/ml of penicillin and 1 μg/ml of streptomycin. Cells with 3-8 passages after purchase were used in experiments as indicated.
(§2) Cell Growth Assay. Cells were seeded at 1500/well in 96 well plates overnight. One day after seeding, they were treated with indicated doses of compounds. The growth of the cells was evaluated by colorimetric WST-8 assay 4 days after the compound treatment following the instructions of the manufacturer, Cayman Chemical, Ann Arbor, Mich.
(§3) Fulvestrant achieves an Imax value of 43.8%. […] RAD1901, a previously reported SERD molecule^18, achieves an Imax value of 25.7%.

[2] = system: primary human mammary epithelial cells; test: Cell proliferation in primary human mammary epithelial cells; format: cell-based
Description: as §2, §3

ERα [3] = target: T1, ERα; test: ER degradation by Western blotting in MCF-7 cells; format: cell-based; parameters: host or cells: MCF-7
Description: FIG. 1 is an image showing the Western blotting analysis of ER protein in MCF-7 cells treated with Compounds of the Disclosure and control compounds. Cells were treated with different compounds for 4 h and whole cell lysates were then analyzed by Western blotting to examine the level of ER protein. GADPH protein was used for the loading control. The numbers below the panel represent the ERα/GADPH ratio normalized with the DMSO control at 100.
FIG. 2 is an image showing the Western blotting analysis of ER protein in the MCF-7 cells treated with indicated compounds at 1 nM, 10 nM and 100 nM. MCF-7 cells were treated with different compounds for 4 h and whole cell lysates were analyzed by Western blotting to examine the level of ER protein. GADPH protein was used for the loading control. The numbers below the panel represent the ERα/GADPH ratio normalized with the DMSO control at 100.
FIG. 7 is an image showing the ERα degradation dose-response Western blotting for compound 32 at 4 h in MCF-7 cells.
FIG. 9 is an image showing the time course of ERα degradation by Western blotting by compound 32 (30 nM) and fulvestrant (30 nM) in the MCF-7 cells.
as §1
Western Blot Analysis. Western blot analysis was performed essentially as described previously (Hu et al, 2015, PMID: 26358219). Cells treated with indicated compounds were lysed in Radioimmunoprecipitation Assay Protein Lysis and Extraction Buffer (25 mmol/L Tris.HCl, pH 7.6, 150 mmol/L NaCl, 1% Nonidet P-40, 1% sodium deoxycholate, and 0.1% sodium dodecyl sulfate) containing proteinase inhibitor cocktail (Roche Diagnostics, Mannheim, Germany). After determination of protein concentration by BCA assay (Fisher Scientific, Pittsburgh, Pa.), equal amounts of total protein were electrophoresed through 10% SDS-polyacrylamide gels. The separated protein bands were transferred onto PVDF membranes (GE Healthcare Life Sciences, Marlborough, Mass.) and blotted against different antibodies, as indicated. The human estrogen receptor a antibodies (AB16460) were purchased from Abeam, Inc., Cambridge, Mass. The membranes were reblotted with horseradish peroxidase-conjugated anti-glyceraldehyde-3-phosphate dehydrogenase antibody (G9295) from Sigma-Aldrich Corporation, St. Louis, Mo. The blots were scanned and the band intensities were quantified using GelQuant.NET software as described in biochemlabsolutions.com. The relative mean intensity of target proteins was expressed after normalization to the intensity of glyceraldehyde-3-phosphate dehydrogenase bands from individual repeats.

**Q.** For CCN(CCCCCOCC(=O)N[C@H](C(=O)N1C[C@H](O)C[C@H]1C(=O)N[C@@H](C)c1ccc(-c2scnc2C)cc1)C(C)(C)C)CCOc1ccc(C(=O)c2c(-c3ccc(O)cc3)sc3cc(O)ccc23)cc1 [compound 32, (2S,4R)-1-((S)-2-(2-((5-(Ethyl(2-(4-(6-hydroxy-2-(4-hydroxyphenyl)benzo[b]thiophene-3-carbonyl)phenoxy)ethyl)amino)pentyl)oxy)acetamido)-3,3-dimethylbutanoyl)-4-hydroxy-N—((S)-1-(4-(4-methylthiazol-5-yl)phenyl)ethyl)pyrrolidine-2-carboxamide], which hook effect (ERα [1]; T47D cells, 1 μM) is on record?
**A.** The hook effect was “demonstrates a hook effect”.

**Q.** And the DC50 (ERα [1]; T47D cells, 4 h)?
**A.** Its DC50 is 430 pM.

**Q.** What about the Dmax (ERα [1]; T47D, read-out: maximum degradation) of the same molecule?
**A.** The Dmax was greater than 95%.

**Q.** And the IC50 (MCF-7 cells; Homo sapiens, MCF7, 96 h, read-out: IC50, inhibition of cell proliferation)?
**A.** Its IC50 is 770 pM.

**Q.** And the “maximum inhibition (Imax)” value (MCF-7 cells; MCF-7 cells, WST-8, 4 days)?
**A.** The value was 57.5%.

**Q.** What about the cell proliferation inhibition [2] of the same molecule?
**A.** Its cell proliferation inhibition is “does not exhibit the cell proliferation inhibition effects”.

**Q.** And the “reduction of ER protein level at 1 h” value (ERα [3]; 30 nM, 1 h treatment)?
**A.** The value was greater than 80%.

**Q.** What about the “ER degradation at the 3 h time-point” value (ERα [3]; 30 nM, 3 h) of the same molecule?
**A.** Its value is “essentially complete ER degradation”.

**Q.** And the DC50 (ERα [3]; 4 h treatment, read-out: DC50 (concentration to achieve 50% of protein degradation))?
**A.** Its DC50 is 170 pM.

**Q.** And the “maximum ER degradation” value (ERα [3]; at concentrations as low as 5 nM)?
**A.** The value was greater than 95%.
